Test results taken from article PMC8400311, “Novel Anti-Melanogenic Compounds, (Z)-5-(Substituted Benzylidene)-4-thioxothiazolidin-2-one Derivatives: In Vitro and In Silico Insights” (Molecules, 2021).

Tests used:
[1] = tested on: cellular tyrosinase in B16F10 melanoma cells; assay: Cellular tyrosinase activity assay (L-DOPA oxidation) in α-MSH-stimulated cells; assay type: cell-based, murine; details: for reduction in cellular tyrosinase activity: 48 h; for cellular tyrosinase activity versus non-treated cells: 48 h (α-MSH alone 2.84-fold)
Procedure: The inhibitory activities of compounds 2b and 2f against cellular tyrosinase were assessed using α-MSH-stimulated melanoma cells. […] The inhibitory effects on tyrosinase activity were evaluated by measuring optical densities.
Tyrosinase activities were assessed by determining the L-DOPA oxidation rate, as described previously with minor modifications. […] Cells were then rinsed twice with PBS, exposed to 100 µL of lysis buffer (90 µL of 50 mM phosphate buffer pH 6.8; 5 µL of 2 mM PMSF; 5 µL of 20% Triton), and frozen at −80 °C for 30 min. After defrosting, lysates were centrifuged at 12,000 g for 30 min at 4 °C, and supernatants (80 µL) were mixed with 10 mM L-DOPA (20 µL) in a 96-well plate. Absorbances were measured at 490 nm at 37 °C every 10 min for 1 h using a microplate reader (VersaMax^TM, Molecular Devices, Sunnyvale, CA, USA). All experiments were carried out three times in triplicate.
Bars represent standard errors.

mushroom tyrosinase [2] = assay: Kinetic study of mushroom tyrosinase inhibition (Lineweaver–Burk plots); assay type: biochemical; details: L-tyrosine 0.5–8.0 mM
Procedure: To investigate the modes of action of compounds 2b and 2f, a kinetic study was performed using mushroom tyrosinase and different concentrations of L-tyrosine as a substrate in the presence of 2b or 2f. As depicted in Figure 4, inhibitory mechanisms were determined using Lineweaver–Burk plot analysis. The Lineweaver–Burk plot patterns of 2b and 2f were similar. The plots obtained at different concentrations of 2b and 2f merged at single points on the y-axis. Regardless of the concentration, the Vmax values of 2b and 2f were independent of concentration, whereas their KM values increased concentration-dependently.
Compounds 2b or 2f (10 µL, final concentrations: 0, 0.05, 0.1, or 0.2 µM for 2b and 0, 2, 4, or 8 µM for 2f) and mushroom tyrosinase solution (20 µL, 150 units) were added to the wells of a 96-well plate containing aqueous solutions (170 µL) containing L-tyrosine at 0.5, 1.0, 2.0, 4.0, or 8.0 mM (final concentrations), distilled water, and potassium phosphate buffer (final concentration: 14.7 mM, pH 6.5), in the ratio 10:9:10. Initial rates of dopachrome formation in reaction mixtures were calculated by measuring increases in absorbances at 492 nm (ΔOD492/min) using a microplate reader (VersaMax^TM, Molecular Devices, Sunnyvale, CA, USA). […] Modes of tyrosinase inhibition were determined using points of convergence. […]

mushroom tyrosinase [3] = assay: Mushroom tyrosinase inhibition assay; assay type: biochemical; details: for IC50: L-tyrosine as substrate, mean of 3 experiments, read-out: IC50 against mushroom tyrosinase; for fold lower tyrosinase inhibitory activity than 2b: ratio of IC50 values vs 2b
Procedure: The absorbances of dopachrome produced in each well during incubation was measured at 450 nm using a microplate reader (VersaMax™, Molecular Devices, Sunnyvale, CA, USA). […] All experiments were independently conducted 3 times. To calculate the % inhibition of tyrosinase activity, the following formula was used: % inhibition = […], where A means the optical density of the test samples and B means the optical density of the non-treated control. To calculate the concentration necessary for 50% inhibition of enzyme activity (IC50), the % tyrosinase inhibition of each compound was obtained at 3 or more different concentrations. IC50 values were calculated by constructing a linear regression curve showing the concentration of the (Z)-BTTZ compounds on the x-axis and percentage inhibition on the y-axis. To obtain a negative control dimethyl sulfoxide (DMSO) was added instead of the (Z)-BTTZ compounds.

B16F10 melanoma cells [4] = assay: Melanin content assay in α-MSH-stimulated cells; assay type: cell-based, murine; details: for reduction in melanin content: 48 h
Procedure: Melanin content assays were used to evaluate the inhibitory effects of compounds 2b and 2f on α-MSH-stimulated melanogenesis. […] The inhibitory activities on α-MSH-stimulated melanogenesis were determined by measuring melanin optical densities. The anti-melanogenesis activities of compounds 2b and 2f were assessed using a standard melanin content assay with minor modifications. Briefly, B16F10 cells were seeded at a density of 5 × 10^4/well in a 24-well plate and allowed to adhere to wells in a DMEM solution containing penicillin/streptomycin (100 IU/100 µg/mL) and 10% heat-inactivated FBS in a standard humidified 5% CO2 atmosphere at 37 °C. […] Cells were then rinsed twice with PBS and lysed in 200 µL of 1N NaOH containing 10% dimethyl sulfoxide (DMSO) for 1 h at 60 °C. Lysates were transferred to the wells of a 96-well plate, and melanin absorbances were measured at 405 nm using a microplate reader (VersaMax^TM, Molecular Devices, Sunnyvale, CA, USA). All experiments were conducted three times in triplicate. […] Bars represent standard errors.

B16F10 melanoma cells [5] = assay: Cell viability, EZ-Cytox assay; assay type: cell-based, murine; details: concentrations ≤25 µM; 24 and 48 h for 2b and 2f, respectively
Procedure: Before examining the inhibitory effects of compounds 2b and 2f on tyrosinase and melanin biosynthesis, we investigated their cytotoxic effects using murine B16F10 melanoma cells. The cells were treated with different concentrations of 2b or 2f (0, 1, 2.5, 5, 10, or 25 µM) for 24 and 48 h (Figure 7), respectively, and the cell viabilities were assessed using the EZ-Cytox assay.
Cell viability assays of compounds 2b and 2f were performed using B16F10 melanoma cells and the EZ-Cytox assay (EZ-3000, DoGenBio, Seoul, Korea), as previously described. Briefly, cells were seeded at a density of 1 × 10^4 cells/well in a 96-well plate for 24 h, and then were exposed to different concentrations (0, 1, 2.5, 5, 10, or 25 µM) of 2b or 2f and incubated at 37 °C for 24 and 48 h, respectively. EZ-Cytox solution (10 µL) was then added to each well and cells were incubated at 37 °C for 2 h. Absorbances were measured at 450 nm using a microplate reader (VersaMax^TM, Molecular Devices, Sunnyvale, CA, USA). Each assay was performed in triplicate.
Figure 7 The cytotoxic effects of compounds 2b (a) and 2f (b) on B16F10 melanoma cells at concentrations of 1, 2.5, 5, 10, or 25 µM. Cell viabilities were determined using the EZ-Cytox assay and are expressed as percentages versus non-treated controls. Bars present standard errors.

SMILES: COc1ccc(/C=C2\SC(=O)NC2=S)cc1O [Compound 2f, (Z)-5-(3-Hydroxy-4-methoxybenzylidene)-4-thioxothiazolidin-2-one]
- reduction in cellular tyrosinase activity ([1]; 5 µM compound, α-MSH 1.0 µM): 23%
- cellular tyrosinase activity versus non-treated cells ([1]; 5 µM compound, α-MSH 1.0 µM): 2.20 fold
- reduction in cellular tyrosinase activity ([1]; 10 µM compound, α-MSH 1.0 µM): 46%
- cellular tyrosinase activity versus non-treated cells ([1]; 10 µM compound, α-MSH 1.0 µM): 1.54 fold
- reduction in cellular tyrosinase activity ([1]; 25 µM compound, α-MSH 1.0 µM): 59%
- cellular tyrosinase activity versus non-treated cells ([1]; 25 µM compound, α-MSH 1.0 µM): 1.18 fold
- mode of mushroom tyrosinase inhibition (mushroom tyrosinase [2]): competitive
- IC50 (mushroom tyrosinase [3]): 15.2 ± 1.68 µM
- reduction in melanin content (B16F10 melanoma cells [4]; 5 µM compound, α-MSH 1.0 µM): 14%
- melanin level versus non-treated controls (B16F10 melanoma cells [4]; 5 µM compound, α-MSH 1.0 µM, 48 h (α-MSH alone 3.51-fold)): 3.03 fold
- reduction in melanin content (B16F10 melanoma cells [4]; 10 µM compound, α-MSH 1.0 µM): 46%
- melanin level versus non-treated controls (B16F10 melanoma cells [4]; 10 µM compound, α-MSH 1.0 µM, 48 h (α-MSH alone 3.51-fold)): 1.88 fold
- reduction in melanin content (B16F10 melanoma cells [4]; 25 µM compound, α-MSH 1.0 µM): 60%
- melanin level versus non-treated controls (B16F10 melanoma cells [4]; 25 µM compound, α-MSH 1.0 µM, 48 h (α-MSH alone 3.51-fold)): 1.42 fold
- cytotoxic effect on B16F10 cells (B16F10 melanoma cells [5]): Neither 2b nor 2f exhibited any significant cytotoxic effect

SMILES: O=c1cc(CO)occ1O [Kojic acid, reference compound]
- reduction in cellular tyrosinase activity ([1]; 25 µM compound, α-MSH 0.5 µM): 14%
- reduction in cellular tyrosinase activity ([1]; 25 µM compound, α-MSH 1.0 µM): 33%
- reduction in melanin content (B16F10 melanoma cells [4]; 25 µM compound, α-MSH 0.5 µM): 14%
- melanin level versus non-treated controls (B16F10 melanoma cells [4]; 25 µM compound, α-MSH 0.5 µM, 48 h (α-MSH alone 1.61-fold)): 1.38 fold
- reduction in melanin content (B16F10 melanoma cells [4]; 25 µM compound, α-MSH 1.0 µM): 45%

SMILES: COc1ccc(/C=C2\SC(=O)NC2=S)cc1 [Compound 2j, (Z)-5-(4-Methoxybenzylidene)-4-thioxothiazolidin-2-one]
- IC50 (mushroom tyrosinase [3]): 30.8 ± 1.41 µM

SMILES: CCOc1cc(/C=C2\SC(=O)NC2=S)ccc1O [Compound 2e, (Z)-5-(3-Ethoxy-4-hydroxybenzylidene)-4-thioxothiazolidin-2-one]
- IC50 (mushroom tyrosinase [3]): 92.81 ± 0.89 µM

SMILES: O=C1NC(=S)/C(=C/c2ccc(O)cc2)S1 [Compound 2a, (Z)-5-(4-Hydroxybenzylidene)-4-thioxothiazolidin-2-one]
- IC50 (mushroom tyrosinase [3]): 28.1 ± 1.16 µM
- fold lower tyrosinase inhibitory activity than 2b (mushroom tyrosinase [3]): 60 fold

SMILES: O=C1NC(=S)/C(=C/c2ccccc2O)S1 [Compound 2h, (Z)-5-(2-Hydroxybenzylidene)-4-thioxothiazolidin-2-one]
- IC50 (mushroom tyrosinase [3]): 147.6 ± 0.96 µM
- fold lower tyrosinase inhibitory activity than 2b (mushroom tyrosinase [3]): 314 fold

SMILES: COc1ccc(/C=C2\SC(=O)NC2=S)c(OC)c1 [Compound 2k, (Z)-5-(2,4-Dimethoxybenzylidene)-4-thioxothiazolidin-2-one]
- IC50 (mushroom tyrosinase [3]): 126.4 ± 0.46 µM

SMILES: COc1ccc(/C=C2\SC(=O)NC2=S)cc1OC [Compound 2l, (Z)-5-(3,4-Dimethoxybenzylidene)-4-thioxothiazolidin-2-one]
- IC50 (mushroom tyrosinase [3]): 23.3 ± 0.28 µM

SMILES: O=C1NC(=S)/C(=C/c2ccc(O)c(O)c2)S1 [Compound 2c, (Z)-5-(3,4-Dihydroxybenzylidene)-4-thioxothiazolidin-2-one]
- IC50 (mushroom tyrosinase [3]): 47.4 ± 2.18 µM

SMILES: COc1cc(/C=C2\SC(=O)NC2=S)cc(OC)c1O [Compound 2g, (Z)-5-(4-Hydroxy-3,5-dimethoxybenzylidene)-4-thioxothiazolidin-2-one]
- IC50 (mushroom tyrosinase [3]): 82.4 ± 1.26 µM

SMILES: O=C1NC(=S)/C(=C/c2ccc(O)c(Br)c2)S1 [Compound 2i, (Z)-5-(3-Bromo-4-hydroxybenzylidene)-4-thioxothiazolidin-2-one]
- IC50 (mushroom tyrosinase [3]): 26.3 ± 4.1 µM

SMILES: COc1cc(/C=C2\SC(=O)NC2=S)ccc1O [Compound 2d, (Z)-5-(4-Hydroxy-3-methoxybenzylidene)-4-thioxothiazolidin-2-one]
- IC50 (mushroom tyrosinase [3]): 70.8 ± 1 µM
- fold lower mushroom tyrosinase inhibitory activity than compound 2f (mushroom tyrosinase [3]; ratio of IC50 values vs 2f): 4.6 fold
